# From patent US9926281B2 (priority 2014, dated 2018)
# Key:
# [1] = molecular target: rnADAMTS-5 (1-564-6H) (Rattus norvegicus, UniProt Q6TY19); conditions: read-out: Rat ADAMTS-5 potency IC50
# [2] = molecular target: human ADAMTS-5 (Homo sapiens (Human), UniProt Q9UNA0); conditions: read-out: hADAMTS-5 potency IC50
# [3] = molecular target: human TACE (Homo sapiens (Human), UniProt P78536); conditions: read-out: TACE potency IC50
# [4] = molecular target: human MMP13 (Homo sapiens (Human), UniProt P45452); conditions: read-out: hMMP-13 potency IC50
# Method: The reaction is initiated by adding to the assay plate 520 MMP-fret substrate XV (10 μL, 4 μM) in the same buffer.
# Chain of human TACE (P78536 whole entry, looked up, change not shown): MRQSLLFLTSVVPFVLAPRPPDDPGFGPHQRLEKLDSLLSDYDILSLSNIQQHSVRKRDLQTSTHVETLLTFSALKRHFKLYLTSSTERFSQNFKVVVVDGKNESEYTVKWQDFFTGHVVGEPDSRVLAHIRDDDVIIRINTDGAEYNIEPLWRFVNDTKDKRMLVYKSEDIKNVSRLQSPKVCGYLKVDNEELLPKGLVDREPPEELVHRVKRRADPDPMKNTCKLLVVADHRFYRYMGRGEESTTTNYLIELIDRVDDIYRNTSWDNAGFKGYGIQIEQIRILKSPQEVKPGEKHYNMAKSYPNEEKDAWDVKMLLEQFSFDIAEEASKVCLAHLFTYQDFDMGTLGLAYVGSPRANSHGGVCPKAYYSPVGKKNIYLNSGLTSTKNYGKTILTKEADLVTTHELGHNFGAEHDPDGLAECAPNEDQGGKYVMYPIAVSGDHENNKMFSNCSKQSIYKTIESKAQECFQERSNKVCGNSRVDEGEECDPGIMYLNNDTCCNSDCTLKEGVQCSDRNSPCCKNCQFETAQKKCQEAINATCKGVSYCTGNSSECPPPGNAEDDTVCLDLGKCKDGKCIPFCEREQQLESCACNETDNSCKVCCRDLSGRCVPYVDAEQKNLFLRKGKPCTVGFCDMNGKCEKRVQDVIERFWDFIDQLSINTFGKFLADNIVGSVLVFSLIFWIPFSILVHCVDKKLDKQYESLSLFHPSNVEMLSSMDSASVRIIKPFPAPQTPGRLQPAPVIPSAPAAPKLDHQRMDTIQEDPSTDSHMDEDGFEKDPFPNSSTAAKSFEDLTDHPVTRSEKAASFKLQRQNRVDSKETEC
# Chain of human ADAMTS-5 (Q9UNA0 262-930): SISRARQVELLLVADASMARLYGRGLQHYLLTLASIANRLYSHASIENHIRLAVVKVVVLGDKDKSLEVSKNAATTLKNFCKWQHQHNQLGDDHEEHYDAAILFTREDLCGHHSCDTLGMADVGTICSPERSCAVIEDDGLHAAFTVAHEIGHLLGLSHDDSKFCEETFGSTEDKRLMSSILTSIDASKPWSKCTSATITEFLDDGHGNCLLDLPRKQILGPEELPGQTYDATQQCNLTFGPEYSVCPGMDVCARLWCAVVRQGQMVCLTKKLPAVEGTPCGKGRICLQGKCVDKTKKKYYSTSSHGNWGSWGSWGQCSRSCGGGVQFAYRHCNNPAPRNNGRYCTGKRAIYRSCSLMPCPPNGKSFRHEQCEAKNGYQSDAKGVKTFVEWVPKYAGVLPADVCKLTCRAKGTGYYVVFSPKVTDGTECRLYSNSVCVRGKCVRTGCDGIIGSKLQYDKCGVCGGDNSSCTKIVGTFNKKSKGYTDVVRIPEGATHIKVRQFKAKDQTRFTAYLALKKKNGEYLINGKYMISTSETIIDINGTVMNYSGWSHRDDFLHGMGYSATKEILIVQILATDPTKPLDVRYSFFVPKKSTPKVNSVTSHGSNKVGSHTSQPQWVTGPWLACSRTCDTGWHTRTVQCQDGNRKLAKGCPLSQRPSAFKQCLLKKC
Structure (SMILES),IC50 [1] [µM],IC50 [2] [µM],IC50 [3] [µM],IC50 [4] [µM]
"CC1(CCC(=O)N2CCN(c3ccc(Cl)cc3)CC2)NC(=O)NC1=O (stereo not drawn) [compound 2, 5-[3-[4-(4-chlorophenyl)piperazin-1-yl]-3-oxo-propyl]-5-methyl-imidazolidine-2,4-dione]",0.361,0.274,> 17.5,2.37
"O=C1NC(=O)C(CCC(=O)N2CCN(c3ccccc3)CC2)(c2ccccc2)N1 (stereo not drawn) [compound 4, 5-[3-oxo-3-(4-phenylpiperazin-1-yl)propyl]-5-phenyl-imidazolidine-2,4-dione]",0.066,0.114,> 5.5,2.52
"Cc1ccccc1N1CCN(C(=O)CCC2(c3ccccc3)NC(=O)NC2=O)CC1 (stereo not drawn) [compound 7, 5-[3-[4-(o-tolyl)piperazin-1-yl]-3-oxo-propyl]-5-phenyl-imidazolidine-2,4-dione]",0.272,0.272,> 2.93,> 20
"Cc1cccc(N2CCN(C(=O)CCC3(c4ccccc4)NC(=O)NC3=O)CC2)c1C (stereo not drawn) [compound 8, 5-[3-[4-(2,3-dimethylphenyl)piperazin-1-yl]-3-oxo-propyl]-5-phenyl-imidazolidine-2,4-dione]",0.157,0.142,> 3.22,> 20
"O=C1NC(=O)C(CCC(=O)N2CCN(c3ccc4ccccc4c3)CC2)(c2ccccc2)N1 (stereo not drawn) [compound 9, 5-[3-[4-(2-naphthyl)piperazin-1-yl]-3-oxo-propyl]-5-phenyl-imidazolidine-2,4-dione]",0.331,0.316,2.5,1.48
"O=C1NC(=O)C(CCC(=O)N2CCN(c3ccc(Cl)c(F)c3)CC2)(c2ccccc2)N1 (stereo not drawn) [compound 10, 5-[3-[4-(4-chloro-3-fluoro-phenyl)piperazin-1-yl]-3-oxo-propyl]-5-phenyl-imidazolidine-2,4-dione]",0.041,0.056,> 2.79,0.285
"Cc1cccc(N2CCN(C(=O)CCC3(C)NC(=O)NC3=O)CC2)c1C (stereo not drawn) [compound 11, 5-[3-[4-(2,3-dimethylphenyl)piperazin-1-yl]-3-oxo-propyl]-5-methyl-imidazolidine-2,4-dione]",1.17,0.988,> 20,> 20
"Cc1cc(Cl)ccc1N1CCN(C(=O)CCC2(c3ccccc3)NC(=O)NC2=O)CC1 (stereo not drawn) [compound 13, 5-[3-[4-(4-chloro-2-methyl-phenyl)piperazin-1-yl]-3-oxo-propyl]-5-phenyl-imidazolidine-2,4-dione]",0.966,0.836,1.17,> 20
"O=C1NC(=O)C(CCC(=O)N2CCN(c3ccc4cnccc4c3)CC2)(c2ccccc2)N1 (stereo not drawn) [compound 14, 5-[3-[4-(6-isoquinolyl)piperazin-1-yl]-3-oxo-propyl]-5-phenyl-imidazolidine-2,4-dione]",0.784,0.897,> 4,0.366
"Cc1ccc(Cl)cc1N1CCN(C(=O)CCC2(C)NC(=O)NC2=O)CC1 (stereo not drawn) [compound 16, 5-[3-[4-(5-chloro-2-methyl-phenyl)piperazin-1-yl]-3-oxo-propyl]-5-methyl-imidazolidine-2,4-dione]",0.329,0.301,0.457,> 20
"Cc1c(Cl)cccc1N1CCN(C(=O)CCC2(C)NC(=O)NC2=O)CC1 (stereo not drawn) [compound 18, 5-[3-[4-(3-chloro-2-methyl-phenyl)piperazin-1-yl]-3-oxo-propyl]-5-methyl-imidazolidine-2,4-dione]",0.93,0.675,> 4,> 20
"O=C1NC(=O)C(CCC(=O)N2CCN(c3ccccc3Cl)CC2)(c2ccccc2)N1 (stereo not drawn) [compound 20, 5-[3-[4-(2-chlorophenyl)piperazin-1-yl]-3-oxo-propyl]-5-phenyl-imidazolidine-2,4-dione]",1.27,1.28,> 4,> 20
